Measurements taken from paper PMC7066271 (Clinical and Experimental Nephrology, 2020).

Columns and labels:
[1] = Plasma pharmacokinetics of dotinurad, single 4 mg oral dose with and without oxaprozin, in healthy adult males; assay type: in vivo, human
Experimental: This was a single-center, open-label, two-period, sequential-group, add-on, drug-drug interaction study in healthy adult males conducted at a Japanese clinical pharmacology study center. Following a screening period ranging from 29 days before, to the day before the study drug administration (Day -1), eligible subjects were admitted to the study site on Day-1, received a single 4 mg oral dose of dotinurad in a fed state, and were discharged 48 h postdose. […] They underwent a follow-up examination between six and ten days after co-administration for safety evaluation. […] A blood sample was drawn, in the amount of 5 mL at each time point except for 10 mL at 4 h after drug administration, into a heparin-containing blood collection tube and centrifuged at 3000 rpm for 10 min at 4 °C. A plasma sample obtained at each time point was then stored at - 20 °C before shipping in a chilled condition with dry ice to Sekisui Medical Co., Ltd. (Ibaraki, Japan) for determination of plasma drug concentrations. […] Ultrafiltered plasma samples were used to determine unbound plasma concentrations of dotinurad by a validated LC-MS/MS method (LC:LC-20AD system, SHIMADZU. MS/MS: API4000, SCIEX). The LLOQ was 0.1 ng/mL.

[2] = Urinary excretion (fe) of dotinurad metabolites with and without oxaprozin in healthy adult males; assay type: in vivo, human
Experimental: (§1) This was a single-center, open-label, two-period, sequential-group, add-on, drug–drug interaction study in healthy adult males conducted at a Japanese clinical pharmacology study center. Following a screening period ranging from 29 days before, to the day before the study drug administration (Day -1), eligible subjects were admitted to the study site on Day-1, received a single 4 mg oral dose of dotinurad in a fed state, and were discharged 48 h postdose. […] They underwent a follow-up examination between six and ten days after co-administration for safety evaluation.
After the pH of the urine sample collected after each time interval was adjusted to ≤ 7.0, the sample was stored at – 20 °C before shipping in a chilled condition with dry ice to Fuji Yakuhin Co., Ltd. (Saitama, Japan) for determination of urinary concentrations of dotinurad’s metabolites.
Urinary concentrations of metabolites (glucuronate conjugates and sulfate conjugates) were determined by a validated LC-MS/MS method (LC: Nexera X2 and Prominence, SHIMADZU. MS/MS: Triple Quad 4500, SCIEX). The LLOQ was 10 ng/mL for both metabolites.

[3] = Unbound fraction of dotinurad in plasma at the time of Cmax (ultrafiltered plasma, LC-MS/MS); assay type: in vivo, human
Experimental: (§2) Ultrafiltered plasma samples were used to determine unbound plasma concentrations of dotinurad by a validated LC–MS/MS method (LC:LC-20AD system, SHIMADZU. MS/MS: API4000, SCIEX). The LLOQ was 0.1 ng/mL.

healthy adult males [4] = test: Safety evaluation: adverse events in healthy adult males; assay type: in vivo, human; settings: for Adverse events reported, all: by treatment period, causal relationship with study drugs ruled out; for Peritonsillar abscess, incidence / Peritonsillar abscess, number of events / Pharyngitis, incidence / Pharyngitis, number of events / Urine beta 2 microglobulin increased, incidence / Urine beta 2 microglobulin increased, number of events: healthy adult males, n = 12 for each drug alone, n = 11 for co-administration
Experimental: as §1
Adverse events (AEs), a measure used for safety evaluation, were coded by preferred term using the Medical Dictionary for Regulatory Activities (MedDRA) version 20.1 (Japanese Maintenance Organization, Tokyo, Japan) and tabulated. The investigator observed/examined/assessed AEs, subjective symptoms and objective findings, vital signs, electrocardiography, and laboratory test values.
The safety analysis population included subjects who received at least one dose of dotinurad and who had data for safety evaluation.

healthy adult males [5] = test: Estimated glomerular filtration rate 24 h after dosing; assay type: in vivo, human
human plasma protein = test system: human plasma protein; parameters: method as in earlier work; settings: cited from earlier work
[6] = test system: CYPs, UGTs, sulfotransferases, and drug transporters; parameters: method as in earlier work; settings: at clinical doses, several in vitro studies; cited from earlier work
[7] = test system: urate transporter 1 (URAT1); parameters: method as in PMID 31371478, PMID 31754883; settings: cited from earlier work
[8] = test system: ATP-binding cassette subfamily G member 2 (ABCG2); parameters: method as in PMID 31371478, PMID 31754883; settings: compared to probenecid, benzbromarone, and lesinurad; cited from earlier work
[9] = test system: organic anion transporter (OAT) 1; parameters: method as in PMID 31371478, PMID 31754883; settings: compared to probenecid, benzbromarone, and lesinurad; cited from earlier work
OAT3 = test system: OAT3; parameters: method as in PMID 31371478, PMID 31754883; settings: compared to probenecid, benzbromarone, and lesinurad; cited from earlier work
[10] = Plasma oxaprozin concentrations before and 24 h after co-administration (steady-state check); assay type: in vivo; settings: male, human, oral, 24 h after co-administration with dotinurad, n = 11
Experimental: A blood sample was drawn, in the amount of 5 mL at each time point except for 10 mL at 4 h after drug administration, into a heparin-containing blood collection tube and centrifuged at 3000 rpm for 10 min at 4 °C. A plasma sample obtained at each time point was then stored at – 20 °C before shipping in a chilled condition with dry ice to Sekisui Medical Co., Ltd. (Ibaraki, Japan) for determination of plasma drug concentrations.
as §2

[11] = [dotinurad and oxaprozin]/[dotinurad alone], n = 11
[12] = dotinurad 4 mg co-administered with oxaprozin 600 mg, fed, n = 11
[13] = dotinurad alone, single 4 mg oral dose, fed, n = 12
[14] = male, human, plasma, dotinurad alone, single 4 mg oral dose, fed, n = 12

## O=C(c1cc(Cl)c(O)c(Cl)c1)N1CS(=O)(=O)c2ccccc21 [Dotinurad, dotinurad]
[1]; [11]
  AUC0–inf, geometric mean ratio (90% CI): 1.165 (1.114–1.219)
  CLtot/F, geometric mean ratio (90% CI): 0.858 (0.820–0.898)
  Cmax, geometric mean ratio (90% CI): 0.982 (0.945–1.021)
  T1/2, geometric mean ratio (90% CI): 1.205 (1.176–1.236)
  Tmax, geometric mean ratio (90% CI): 1.000 (0.844–1.185)
  Vd/F, geometric mean ratio (90% CI): 1.035 (0.999–1.071)
[1]; co-administration with oxaprozin compared with dotinurad alone
  Increase in AUC0–inf of dotinurad: 16.5%
[1]; [12]
  AUC0–inf, mean: 4487 ng・h/mL
  CLtot/F, mean: 0.901 L/h
[1]; [13]
  AUC0–inf, mean: 3846 ng・h/mL
  CLtot/F, mean: 1.065 L/h
[1]; [14]
  Cmax: 271 ng/mL
  Tmax: 3.67 h
  Vd/F: 14.9 L
[1]; male, human, plasma, dotinurad alone, single 4 mg oral dose, fed, n = 12, read-out: T1/2, mean (converted)
  half-life: 591 min
[2]; assuming absence of compensatory enhancement of other metabolic pathways
  Estimated increase in dotinurad exposure when co-administered with oxaprozin: approximately 13%
[2]; calculated from fe of glucuronate conjugates
  Proportion of glucuronidation inhibited by co-administered oxaprozin in terms of the entire metabolism of dotinurad: 13.2%
[3]; [11]
  Unbound fraction in plasma at Cmax, geometric mean ratio (90% CI): 1.615 (1.454–1.794)
[3]; male, human, plasma, oral, dotinurad alone, 4 mg, n = 12
  fraction unbound: 0.00534
Healthy adult males [4]
  Adverse events reported, all: Two events occurred in two subjects
  Peritonsillar abscess, incidence: 0.0%
  Peritonsillar abscess, number of events: 0
  Pharyngitis, incidence: 8.3%
  Pharyngitis, number of events: 1
  Urine beta 2 microglobulin increased, incidence: 8.3%
  Urine beta 2 microglobulin increased, number of events: 1
Healthy adult males [5]; 24 h after administration of dotinurad alone, n = 12
  Estimated glomerular filtration rate (eGFR) (mean ± SD): 100.9 ± 13.0 mL/min/1.73 m^2
Healthy adult males [5]; 24 h after co-administration with oxaprozin, n = 11
  Estimated glomerular filtration rate (eGFR) (mean ± SD): 93.3 ± 13.0 mL/min/1.73 m^2
Human plasma protein; at clinical doses, in vitro
  Effect on plasma protein binding rates of potentially co-administered drugs: no effects
[6]
  Effect on CYPs, UGTs, sulfotransferases, and drug transporters: no effects
[7]
  URAT1 inhibition: potent URAT1 inhibitor
[8]
  Effect on ABCG2: minimal effect
[9]
  Effect on OAT1: minimal effect
OAT3
  Effect on OAT3: minimal effect

## O=C(O)CCc1nc(-c2ccccc2)c(-c2ccccc2)o1 [Oxaprozin, oxaprozin, reference compound]
Healthy adult males [4]
  Adverse events reported, all: one event occurred in one subject
  Peritonsillar abscess, incidence: 8.3%
  Peritonsillar abscess, number of events: 1
  Pharyngitis, incidence: 0.0%
  Pharyngitis, number of events: 0
  Urine beta 2 microglobulin increased, incidence: 0.0%
  Urine beta 2 microglobulin increased, number of events: 0
[10]
  concentration at 24 h: 102 ± 10.4 µg/mL
Human plasma protein; human plasma, ultrafiltration method
  Effect on plasma protein binding rate of dotinurad: lower the plasma protein binding rate of dotinurad
